Experimental data from patent US9067977B2, “Peptides derivatized with A-B-C-D- and their therapeutical use” (Novo Nordisk A/S, priority 2007, dated 2015).

Tests used:
[1] = biological target: T1, human serum albumin (HSA) (Homo sapiens, UniProt P02768); test: in vitro; conditions: pH 7.4
Method: (§1) Streptavidin-SPA beads (GE Healthcare RPNQ0009) were incubated with biotinylated HSA for 5 hours. The beads were washed with buffer to remove unbound HSA. […] After 20 hours of gentle rocking at room temperature the plates were centrifuged and counted on a TopCounter.

[2] = biological target: T1, human serum albumin (HSA); test: Albumin binding affinity, competition scintillation proximity assay; conditions: human, biotinylated human serum albumin on streptavidin-SPA beads, pH 7.4
Method: as §1

T1 sequence (P02768 25-609): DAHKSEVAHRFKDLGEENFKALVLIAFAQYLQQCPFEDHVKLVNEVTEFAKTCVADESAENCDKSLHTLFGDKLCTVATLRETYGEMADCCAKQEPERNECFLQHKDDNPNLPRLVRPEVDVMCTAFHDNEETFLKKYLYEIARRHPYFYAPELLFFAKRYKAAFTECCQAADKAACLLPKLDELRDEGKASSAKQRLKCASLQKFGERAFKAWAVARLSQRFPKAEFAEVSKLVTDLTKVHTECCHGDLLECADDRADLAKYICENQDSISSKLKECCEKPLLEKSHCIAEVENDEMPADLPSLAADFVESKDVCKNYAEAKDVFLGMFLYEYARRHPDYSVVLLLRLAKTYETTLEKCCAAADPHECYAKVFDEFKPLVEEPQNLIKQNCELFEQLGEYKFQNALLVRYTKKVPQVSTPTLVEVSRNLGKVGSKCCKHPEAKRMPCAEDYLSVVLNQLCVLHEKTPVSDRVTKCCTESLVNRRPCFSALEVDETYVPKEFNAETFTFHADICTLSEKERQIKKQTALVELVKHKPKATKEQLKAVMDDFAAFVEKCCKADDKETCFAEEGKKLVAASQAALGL

CC[C@H](C)[C@H](NC(=O)[C@H](Cc1ccccc1)NC(=O)[C@H](CCC(=O)O)NC(=O)[C@H](CCCCNC(=O)COCCOCCNC(=O)CC[C@H](NC(=O)CC[C@H](NC(=O)CCCCCCCCCCCNC(=O)CCCS(=O)(=O)NC(=O)CCCCCCCCCCCCCCCc1nnn[nH]1)C(=O)O)C(=O)O)NC(=O)[C@H](C)NC(=O)[C@H](C)NC(=O)[C@H](CCC(N)=O)NC(=O)CNC(=O)[C@H](CCC(=O)O)NC(=O)[C@H](CC(C)C)NC(=O)[C@H](Cc1ccc(O)cc1)NC(=O)[C@H](CO)NC(=O)[C@H](CO)NC(=O)[C@@H](NC(=O)[C@H](CC(=O)O)NC(=O)[C@H](CO)NC(=O)[C@@H](NC(=O)[C@H](Cc1ccccc1)NC(=O)[C@@H](NC(=O)CNC(=O)[C@H](CCC(=O)O)NC(=O)C(C)(C)NC(=O)[C@@H](N)Cc1c[nH]cn1)[C@@H](C)O)[C@@H](C)O)C(C)C)C(=O)N[C@@H](C)C(=O)N[C@@H](Cc1c[nH]c2ccccc12)C(=O)N[C@@H](CC(C)C)C(=O)N[C@@H](CCCCN)C(=O)NCC(=O)O [Example 43, N-epsilon26-[2-(2-{2-[(S)-4-Carboxy-4-((S)-4-carboxy-4-{12-[4-(16-(1H-tetrazol-5-yl)hexadecanoylsulfamoyl)butyrylamino]dodecanoylamino}butyrylamino)butyrylamino]ethoxy}ethoxy)acetyl][Aib8,Lys33,Arg34]GLP-1-(7-34)]
EC50 [1]: 0.001 to 0.1 µM

CC[C@H](C)[C@H](NC(=O)[C@H](Cc1ccccc1)NC(=O)[C@H](CCC(=O)O)NC(=O)[C@H](CCCCNC(=O)COCCOCCNC(=O)CC[C@H](NC(=O)CC[C@H](NC(=O)CCCCCNC(=O)CCCS(=O)(=O)NC(=O)CCCCCCCCCCCCCCCc1nnn[nH]1)C(=O)O)C(=O)O)NC(=O)[C@H](C)NC(=O)[C@H](C)NC(=O)[C@H](CCC(N)=O)NC(=O)CNC(=O)[C@H](CCC(=O)O)NC(=O)[C@H](CC(C)C)NC(=O)[C@H](Cc1ccc(O)cc1)NC(=O)[C@H](CO)NC(=O)[C@H](CO)NC(=O)[C@@H](NC(=O)[C@H](CC(=O)O)NC(=O)[C@H](CO)NC(=O)[C@@H](NC(=O)[C@H](Cc1ccccc1)NC(=O)[C@@H](NC(=O)CNC(=O)[C@H](CCC(=O)O)NC(=O)C(C)(C)NC(=O)[C@@H](N)Cc1c[nH]cn1)[C@@H](C)O)[C@@H](C)O)C(C)C)C(=O)N[C@@H](C)C(=O)N[C@@H](Cc1c[nH]c2ccccc12)C(=O)N[C@@H](CC(C)C)C(=O)N[C@H](C(=O)N[C@@H](CCCNC(=N)N)C(=O)NCC(=O)O)C(C)C [Example 40, N-epsilon26-[2-(2-{2-[(S)-4-Carboxy-4-((S)-4-carboxy-4-{6-[4-(16-(1H-tetrazol-5-yl)hexadecanoylsulfamoyl)butyrylamino]hexanoylamino}butyrylamino)butyrylamino]ethoxy}ethoxy)acetyl][Aib8,Arg34]GLP-1-(7-35)]
EC50 at 20 h [1]: 0.15 to 0.3 µM

CC[C@H](C)[C@H](NC(=O)[C@H](Cc1ccccc1)NC(=O)[C@H](CCC(=O)O)NC(=O)[C@H](CCCCNC(=O)COCCOCCNC(=O)CC[C@H](NC(=O)CC[C@H](NC(=O)CCCCCCCCCCCNC(=O)CCCS(=O)(=O)NC(=O)CCCCCCCCCCCCCCCc1nnn[nH]1)C(=O)O)C(=O)O)NC(=O)[C@H](C)NC(=O)[C@H](C)NC(=O)[C@H](CCC(N)=O)NC(=O)CNC(=O)[C@H](CCC(=O)O)NC(=O)[C@H](CC(C)C)NC(=O)[C@H](Cc1ccc(O)cc1)NC(=O)[C@H](CO)NC(=O)[C@H](CO)NC(=O)[C@@H](NC(=O)[C@H](CC(=O)O)NC(=O)[C@H](CO)NC(=O)[C@@H](NC(=O)[C@H](Cc1ccccc1)NC(=O)[C@@H](NC(=O)CNC(=O)[C@H](CCC(=O)O)NC(=O)C(C)(C)NC(=O)[C@@H](N)Cc1c[nH]cn1)[C@@H](C)O)[C@@H](C)O)C(C)C)C(=O)N[C@@H](C)C(=O)N[C@@H](Cc1c[nH]c2ccccc12)C(=O)N[C@@H](CC(C)C)C(=O)N[C@H](C(=O)N[C@@H](CCCNC(=N)N)C(=O)NCC(=O)O)C(C)C [Example 39, N-epsilon26-[2-(2-{2-[(S)-4-Carboxy-4-((S)-4-carboxy-4-{12-[4-(16-(1H-tetrazol-5-yl)hexadecanoylsulfamoyl)butyrylamino]dodecanoylamino}butyrylamino)butyrylamino]ethoxy}ethoxy)acetyl][Aib8,Arg34]GLP-1-(7-35)]
EC50 at 20 h [1]: 0.001 to 0.1 µM

CC[C@H](C)[C@H](NC(=O)[C@H](Cc1ccccc1)NC(=O)[C@H](CCC(=O)O)NC(=O)[C@H](CCCNC(=N)N)NC(=O)[C@H](C)NC(=O)[C@H](C)NC(=O)[C@H](CCC(N)=O)NC(=O)CNC(=O)[C@H](CCC(=O)O)NC(=O)[C@H](CC(C)C)NC(=O)[C@H](Cc1ccc(O)cc1)NC(=O)[C@H](CO)NC(=O)[C@H](CO)NC(=O)[C@@H](NC(=O)[C@H](CC(=O)O)NC(=O)[C@H](CO)NC(=O)[C@@H](NC(=O)[C@H](Cc1ccccc1)NC(=O)[C@@H](NC(=O)CNC(=O)[C@H](CCC(=O)O)NC(=O)[C@H](C)NC(=O)CCc1c[nH]cn1)[C@@H](C)O)[C@@H](C)O)C(C)C)C(=O)N[C@@H](C)C(=O)N[C@@H](Cc1c[nH]c2ccccc12)C(=O)N[C@@H](CC(C)C)C(=O)N[C@H](C(=O)N[C@@H](CCCNC(=N)N)C(=O)NCC(=O)N[C@@H](CCCNC(=N)N)C(=O)N[C@@H](CCCCNC(=O)COCCOCCNC(=O)COCCOCCNC(=O)CC[C@H](NC(=O)[C@H]1CC[C@H](CNC(=O)CCCCCCCCCCCCCCCCCCC(=O)O)CC1)C(=O)O)C(=O)O)C(C)C [Example 31, N-epsilon37-[2-(2-{2-[2-(2-{2-[(S)-4-Carboxy-4-({trans-4-[(19-carboxy-nonadecanoylamino)methyl]cyclohexanecarbonyl}amino)butyrylamino]ethoxy}ethoxy)acetylamino]ethoxy}ethoxy)acetyl][DesaminoHis7,Arg26,Arg34,Lys37]GLP-1-(7-37)]
EC50 at 20 h [2]: 0.3 to 0.8 µM
